Experimental data published in ChEMBL document CHEMBL1154825, “Schweinfurthins I and J from Macaranga schweinfurthii” (2010).

Assays:
Type in all cases: functional
RXF 393 = assay: Growth inhibition of human […] cells
TK-10 = assay: Growth inhibition of human TK10 cells
HT-29 = assay: Growth inhibition of human HT-29 cells
[1] = Growth inhibition of human Hs 578T cells
NCI-H522 = assay: Growth inhibition of human NCI-H522 cells
KM12 = assay: Growth inhibition of human KM12 cells
RPMI-8226 = assay: Growth inhibition of human RPMI8226 cells
HCC 2998 = assay: Growth inhibition of human HCC2998 cells
A498 = assay: Growth inhibition of human A498 cells
A549 = assay: Growth inhibition of human A549 cells
ACHN = assay: Growth inhibition of human ACHN cells
OVCAR-3 = assay: Growth inhibition of human OVCAR-3 cells
SK-MEL-5 = assay: Growth inhibition of human SK-MEL-5 cells
CAKI-1 = assay: Growth inhibition of human Caki1 cells
SK-MEL-2 = assay: Growth inhibition of human SK-MEL-2 cells
SK-MEL-28 = assay: Growth inhibition of human SK-MEL-28 cells
NCI-H23 = assay: Growth inhibition of human NCI-H23 cells
UACC-62 = assay: Growth inhibition of human UACC62 cells
NCI-H460 = assay: Growth inhibition of human NCI-H460 cells
MDA-MB-435 = assay: Growth inhibition of human MDA-MB-435 cells
HCT-15 = assay: Growth inhibition of human HCT15 cells
HL-60(TB) = assay: Growth inhibition of human HL-60(TB) cells
HOP-92 = assay: Growth inhibition of human HOP92 cells
MOLT-4 = assay: Growth inhibition of human MOLT4 cells
T47D = assay: Growth inhibition of human T47D cells
LOX IMVI = assay: Growth inhibition of human LOXIMVI cells
CCRF-CEM = assay: Growth inhibition of human CCRF-CEM cells
UACC-257 = assay: Growth inhibition of human UACC257 cells
SF-268 = assay: Growth inhibition of human SF268 cells
BT-549 = assay: Growth inhibition of human BT549 cells
PC-3 = assay: Growth inhibition of human PC3 cells
M14 = assay: Growth inhibition of human M14 cells
[2] = Growth inhibition of human NCI60 cells
SNB-75 = assay: Growth inhibition of human SNB75 cells
K562 = assay: Growth inhibition of human K562 cells
SF-539 = assay: Growth inhibition of human SF539 cells
OVCAR-5 = assay: Growth inhibition of human OVCAR5 cells
UO-31 = assay: Growth inhibition of human UO31 cells
MDA-MB-231 = assay: Growth inhibition of human MDA-MB-231 cells
HOP-62 = assay: Growth inhibition of human HOP62 cells
MCF7 = assay: Growth inhibition of human MCF7 cells
SW-620 = assay: Growth inhibition of human SW620 cells
OVCAR-8 = assay: Growth inhibition of human OVCAR8 cells
786-0 = assay: Growth inhibition of human 786-0 cells
[3] = read-out: pLC50 (the source's name) (converted)

CC(C)=CCC/C(C)=C/Cc1cc(/C=C/c2cc(O)cc(O)c2)ccc1O [SCHWEINFURTHIN I]
GI50 (RXF 393): 1.78 µM | CC50 (RXF 393; [3]): 7.76 µM | TGI (RXF 393; read-out: pTGI (converted)): 3.72 µM | GI50 (TK-10): 14.8 µM | LC50 (TK-10): 56.2 µM | TGI (TK-10; read-out: pTGI (converted)): 28.8 µM | GI50 (HT-29): 12.6 µM | LC50 (HT-29): 69.2 µM | TGI (HT-29; read-out: pTGI (converted)): 29.5 µM | GI50 [1]: 4.07 µM | LC50 [1]: > 100 µM | TGI ([1]; read-out: pTGI (converted)): 26.3 µM | GI50 (NCI-H522): 11.2 µM | LC50 (NCI-H522): 72.4 µM | TGI (NCI-H522; read-out: pTGI (converted)): 28.2 µM | GI50 (KM12): 7.08 µM | LC50 (KM12): 49 µM | TGI (KM12; read-out: pTGI (converted)): 20.4 µM | GI50 (RPMI-8226): 3.98 µM | LC50 (RPMI-8226): 91.2 µM | TGI (RPMI-8226; read-out: pTGI (converted)): 19.1 µM | GI50 (HCC 2998): 15.5 µM | LC50 (HCC 2998): 58.9 µM | TGI (HCC 2998; read-out: pTGI (converted)): 30.2 µM | GI50 (A498): 5.01 µM | LC50 (A498): 47.9 µM | TGI (A498; read-out: pTGI (converted)): 20.4 µM | GI50 (A549): 10.5 µM | LC50 (A549): 66.1 µM | TGI (A549; read-out: pTGI (converted)): 26.3 µM | GI50 (ACHN): 10 µM | CC50 (ACHN; [3]): 49 µM | TGI (ACHN; read-out: pTGI (converted)): 22.4 µM | GI50 (OVCAR-3): 12.3 µM | LC50 (concentration killing 50% of cells) (OVCAR-3): 50.1 µM | TGI (OVCAR-3; read-out: pTGI (converted)): 25.1 µM | GI50 (SK-MEL-5): 4.68 µM | CC50 (SK-MEL-5; [3]): 43.7 µM | TGI (SK-MEL-5; read-out: pTGI (converted)): 17.4 µM | GI50 (CAKI-1): 5.62 µM | CC50 (CAKI-1; [3]): 43.7 µM | TGI (CAKI-1; read-out: pTGI (converted)): 18.6 µM | GI50 (SK-MEL-2): 11.5 µM | LC50 (SK-MEL-2): 56.2 µM | TGI (SK-MEL-2; read-out: pTGI (converted)): 25.7 µM | GI50 (SK-MEL-28): 10.7 µM | CC50 (SK-MEL-28; [3]): 50.1 µM | TGI (SK-MEL-28; read-out: pTGI (converted)): 23.4 µM | GI50 (NCI-H23): 11.7 µM | LC50 (NCI-H23): 61.7 µM | TGI (NCI-H23; read-out: pTGI (converted)): 26.9 µM | GI50 (UACC-62): 10.7 µM | CC50 (UACC-62; [3]): 51.3 µM | TGI (UACC-62; read-out: pTGI (converted)): 23.4 µM | GI50 (NCI-H460): 10.2 µM | LC50 (NCI-H460): 85.1 µM | TGI (NCI-H460; read-out: pTGI (converted)): 29.5 µM | GI50 (MDA-MB-435): 7.24 µM | CC50 (MDA-MB-435; [3]): 53.7 µM | TGI (MDA-MB-435; read-out: pTGI (converted)): 21.9 µM | GI50 (HCT-15): 15.8 µM | LC50 (50% lethal concentration) (HCT-15): > 100 µM | TGI (HCT-15; read-out: pTGI (converted)): 58.9 µM | GI50 (HL-60(TB)): 5.37 µM | CC50 (HL-60(TB); [3]): 77.6 µM | TGI (HL-60(TB); read-out: pTGI (converted)): 23.4 µM | GI50 (HOP-92): 12.9 µM | CC50 (HOP-92; [3]): 77.6 µM | TGI (HOP-92; read-out: pTGI (converted)): 31.6 µM | GI50 (MOLT-4): 7.24 µM | LC50 (MOLT-4): > 100 µM | TGI (MOLT-4; read-out: pTGI (converted)): 30.2 µM | GI50 (T47D): 10.2 µM | LC50 (T47D): 81.3 µM | TGI (T47D; read-out: pTGI (converted)): 28.8 µM | GI50 (LOX IMVI): 7.24 µM | CC50 (LOX IMVI; [3]): 50.1 µM | TGI (LOX IMVI; read-out: pTGI (converted)): 20.9 µM | GI50 (CCRF-CEM): 5.37 µM | LC50 (CCRF-CEM): 95.5 µM | TGI (CCRF-CEM; read-out: pTGI (converted)): 25.7 µM | GI50 (UACC-257): 14.5 µM | LC50 (UACC-257): 60.3 µM | TGI (UACC-257; read-out: pTGI (converted)): 29.5 µM | GI50 (SF-268): 8.71 µM | LC50 (SF-268): 51.3 µM | TGI (SF-268; read-out: pTGI (converted)): 21.9 µM | GI50 (BT-549): 7.41 µM | LC50 (BT-549): 45.7 µM | TGI (BT-549; read-out: pTGI (converted)): 20 µM | GI50 (PC-3): 6.61 µM | LC50 (PC-3): 49 µM | TGI (PC-3; read-out: pTGI (converted)): 20.4 µM | GI50 (M14): 12.9 µM | CC50 (M14; [3]): 53.7 µM | TGI (M14; read-out: pTGI (converted)): 26.3 µM | GI50 [2]: 10 µM | GI50 (SNB-75): 11.2 µM | LC50 (SNB-75): 52.5 µM | TGI (SNB-75; read-out: pTGI (converted)): 24.5 µM | GI50 (K562): 5.01 µM | LC50 (K562): 72.4 µM | TGI (K562; read-out: pTGI (converted)): 22.4 µM | GI50 (SF-539): 5.13 µM | LC50 (SF-539): 47.9 µM | TGI (SF-539; read-out: pTGI (converted)): 17.8 µM | GI50 (OVCAR-5): 17.4 µM | LC50 (OVCAR-5): 72.4 µM | TGI (OVCAR-5; read-out: pTGI (converted)): 35.5 µM | GI50 (UO-31): 6.76 µM | LC50 (concentration killing 50% of cells) (UO-31): 47.9 µM | TGI (UO-31; read-out: pTGI (converted)): 20.9 µM | GI50 (MDA-MB-231): 10.7 µM | LC50 (MDA-MB-231): 63.1 µM | TGI (MDA-MB-231; read-out: pTGI (converted)): 26.3 µM | GI50 (HOP-62): 14.5 µM | LC50 (HOP-62): 53.7 µM | TGI (HOP-62; read-out: pTGI (converted)): 27.5 µM | GI50 (MCF7): 10 µM | LC50 (MCF7): 63.1 µM | TGI (MCF7; read-out: pTGI (converted)): 25.1 µM | GI50 (SW-620): 15.8 µM | LC50 (SW-620): > 100 µM | TGI (SW-620; read-out: pTGI (converted)): 43.7 µM | GI50 (OVCAR-8): 13.8 µM | LC50 (OVCAR-8): 70.8 µM | TGI (OVCAR-8; read-out: pTGI (converted)): 30.9 µM | GI50 (786-0): 3.55 µM | CC50 (786-0; [3]): 37.2 µM | TGI (786-0; read-out: pTGI (converted)): 12 µM
